In BindingDB's records for doi:10.1016/j.ejmech.2019.02.016 (National Health Research Institutes, 2019):

assay: Inhibition of NS5A in HCV genotype 1b infected in human HuH7 replicon cells assessed as reduction in subgenomic viral RNA replication treated for 2 days followed by compound washout and subsequent compound dosing measured after 1 day by SEAP reporter gene assay

| EC50 | SMILES |
| --- | --- |
| 0.031 nM | CCCCC(=O)N[C@@H](C(=O)N1CCC[C@H]1c1ncc(-c2ccc(-c3ccc(-c4cnc([C@@H]5CCCN5C(=O)[C@H](NC(=O)CCCC)c5ccccc5)s4)cc3)cc2)s1)c1ccccc1 |
| 0.016 nM | CCC(=O)N[C@@H](C(=O)N1CCC[C@H]1c1ncc(-c2ccc(-c3ccc(-c4cnc([C@@H]5CCCN5C(=O)[C@H](NC(=O)CC)c5ccccc5)s4)cc3)cc2)s1)c1ccccc1 |
| 0.02 nM | CC(=O)N[C@@H](C(=O)N1CCC[C@H]1c1ncc(-c2ccc(-c3ccc(-c4cnc([C@@H]5CCCN5C(=O)[C@H](NC(C)=O)c5ccccc5)s4)cc3)cc2)s1)c1ccccc1 |
| 56 nM | COC(=O)N[C@H](C(=O)N1CCC[C@H]1c1ncc(-c2ccc(-c3ccc(-c4cnc([C@@H]5CCCN5C(=O)[C@@H](NC(=O)OC)C(C)C)s4)cc3)cc2)s1)C(C)C |
| 57 nM | CC[C@H](NC(=O)OC)C(=O)N1CCC[C@H]1c1ncc(-c2ccc(-c3ccc(-c4cnc([C@@H]5CCCN5C(=O)[C@H](CC)NC(=O)OC)s4)cc3)cc2)s1 |
| 471 nM | COC(=O)N[C@H](C(=O)N1CCC[C@H]1c1ncc(-c2ccc(-c3ccc(-c4cnc([C@@H]5CCCN5C(=O)[C@@H](NC(=O)OC)C(C)(C)C)s4)cc3)cc2)s1)C(C)(C)C |
| 358 nM | CCCC[C@@H](NC(=O)C1CC1)C(=O)N1CCC[C@H]1c1ncc(-c2ccc(-c3ccc(-c4cnc([C@@H]5CCCN5C(=O)[C@@H](CCCC)NC(=O)C5CC5)s4)cc3)cc2)s1 |
| 102 nM | CN1CCN(CCC(=O)N[C@H](C(=O)N2CCC[C@H]2c2ncc(-c3ccc(-c4ccc(-c5cnc([C@@H]6CCCN6C(=O)[C@H](NC(=O)CCN6CCN(C)CC6)c6ccccc6)s5)cc4)cc3)s2)c2ccccc2)CC1 |
| 6.9 nM | CN(C)CCC(=O)N[C@H](C(=O)N1CCC[C@H]1c1ncc(-c2ccc(-c3ccc(-c4cnc([C@@H]5CCCN5C(=O)[C@H](NC(=O)CCN(C)C)c5ccccc5)s4)cc3)cc2)s1)c1ccccc1 |
| 122 nM | O=C(N[C@H](C(=O)N1CCC[C@H]1c1ncc(-c2ccc(-c3ccc(-c4cnc([C@@H]5CCCN5C(=O)[C@H](NC(=O)c5ccsc5)c5ccccc5)s4)cc3)cc2)s1)c1ccccc1)c1ccsc1 |
| 2640 nM | O=C(N[C@H](C(=O)N1CCC[C@H]1c1ncc(-c2ccc(-c3ccc(-c4cnc([C@@H]5CCCN5C(=O)[C@H](NC(=O)c5ccccn5)c5ccccc5)s4)cc3)cc2)s1)c1ccccc1)c1ccccn1 |
| 1.1 nM | O=C(N[C@H](C(=O)N1CCC[C@H]1c1ncc(-c2ccc(-c3ccc(-c4cnc([C@@H]5CCCN5C(=O)[C@H](NC(=O)C5CCCC5)c5ccccc5)s4)cc3)cc2)s1)c1ccccc1)C1CCCC1 |
| 2.4 nM | CCCCCC(=O)N[C@H](C(=O)N1CCC[C@H]1c1ncc(-c2ccc(-c3ccc(-c4cnc([C@@H]5CCCN5C(=O)[C@H](NC(=O)CCCCC)c5ccccc5)s4)cc3)cc2)s1)c1ccccc1 |
| 0.2 nM | O=C(CCN1CCOCC1)N[C@@H](C(=O)N1CCC[C@H]1c1ncc(-c2ccc(-c3ccc(-c4cnc([C@@H]5CCCN5C(=O)[C@H](NC(=O)CCN5CCOCC5)c5ccccc5)s4)cc3)cc2)s1)c1ccccc1 |
| 0.017 nM | O=C(CCn1cccc1)N[C@@H](C(=O)N1CCC[C@H]1c1ncc(-c2ccc(-c3ccc(-c4cnc([C@@H]5CCCN5C(=O)[C@H](NC(=O)CCn5cccc5)c5ccccc5)s4)cc3)cc2)s1)c1ccccc1 |
| 0.08 nM | O=C(N[C@@H](C(=O)N1CCC[C@H]1c1ncc(-c2ccc(-c3ccc(-c4cnc([C@@H]5CCCN5C(=O)[C@H](NC(=O)c5ccoc5)c5ccccc5)s4)cc3)cc2)s1)c1ccccc1)c1ccoc1 |
| 0.13 nM | O=C(Cc1ccccc1)N[C@@H](C(=O)N1CCC[C@H]1c1ncc(-c2ccc(-c3ccc(-c4cnc([C@@H]5CCCN5C(=O)[C@H](NC(=O)Cc5ccccc5)c5ccccc5)s4)cc3)cc2)s1)c1ccccc1 |
| 0.003 nM | O=C(N[C@@H](C(=O)N1CCC[C@H]1c1ncc(-c2ccc(-c3ccc(-c4cnc([C@@H]5CCCN5C(=O)[C@H](NC(=O)C5CC5)c5ccccc5)s4)cc3)cc2)s1)c1ccccc1)C1CC1 |

| EC50 | SMILES |
| --- | --- |
| 0.013 nM | CCCC(=O)N[C@@H](C(=O)N1CCC[C@H]1c1ncc(-c2ccc(-c3ccc(-c4cnc([C@@H]5CCCN5C(=O)[C@H](NC(=O)CCC)c5ccccc5)s4)cc3)cc2)s1)c1ccccc1 |
| 3.4 nM | CS(=O)(=O)N[C@@H](C(=O)N1CCC[C@H]1c1ncc(-c2ccc(-c3ccc(-c4cnc([C@@H]5CCCN5C(=O)[C@H](NS(C)(=O)=O)c5ccccc5)s4)cc3)cc2)s1)c1ccccc1 |
| 237 nM | CCCC[C@H](NC(=O)OC)C(=O)N1CCC[C@H]1c1ncc(-c2ccc(-c3ccc(-c4cnc([C@@H]5CCCN5C(=O)[C@H](CCCC)NC(=O)OC)s4)cc3)cc2)s1 |
| 4 nM | O=C(CCN1CCCC1)N[C@@H](C(=O)N1CCC[C@H]1c1ncc(-c2ccc(-c3ccc(-c4cnc([C@@H]5CCCN5C(=O)[C@H](NC(=O)CCN5CCCC5)c5ccccc5)s4)cc3)cc2)s1)c1ccccc1 |
| 115 nM | C[C@@H](NC(=O)C1CC1)C(=O)N1CCC[C@H]1c1ncc(-c2ccc(-c3ccc(-c4cnc([C@@H]5CCCN5C(=O)[C@@H](C)NC(=O)C5CC5)s4)cc3)cc2)s1 |
| 0.89 nM | O=C(CCN1CCCCC1)N[C@@H](C(=O)N1CCC[C@H]1c1ncc(-c2ccc(-c3ccc(-c4cnc([C@@H]5CCCN5C(=O)[C@H](NC(=O)CCN5CCCCC5)c5ccccc5)s4)cc3)cc2)s1)c1ccccc1 |
| 0.02 nM | O=C(N[C@@H](C(=O)N1CCC[C@H]1c1ncc(-c2ccc(-c3ccc(-c4cnc([C@@H]5CCCN5C(=O)[C@H](NC(=O)N5CCOCC5)c5ccccc5)s4)cc3)cc2)s1)c1ccccc1)N1CCOCC1 |
| 0.009 nM | CC(C)C(=O)N[C@@H](C(=O)N1CCC[C@H]1c1ncc(-c2ccc(-c3ccc(-c4cnc([C@@H]5CCCN5C(=O)[C@H](NC(=O)C(C)C)c5ccccc5)s4)cc3)cc2)s1)c1ccccc1 |
| 149 nM | CS(=O)(=O)N[C@H](C(=O)N1CCC[C@H]1c1ncc(-c2ccc(-c3ccc(-c4cnc([C@@H]5CCCN5C(=O)[C@H](NS(C)(=O)=O)c5ccccc5)s4)cc3)cc2)s1)c1ccccc1 |
| 0.37 nM | O=C(N[C@H](C(=O)N1CCC[C@H]1c1ncc(-c2ccc(-c3ccc(-c4cnc([C@@H]5CCCN5C(=O)[C@H](NC(=O)c5ccncc5)c5ccccc5)s4)cc3)cc2)s1)c1ccccc1)c1ccncc1 |
| 1600 nM | CC(C)(C)[C@@H](NC(=O)C1CC1)C(=O)N1CCC[C@H]1c1ncc(-c2ccc(-c3ccc(-c4cnc([C@@H]5CCCN5C(=O)[C@H](NC(=O)C5CC5)C(C)(C)C)s4)cc3)cc2)s1 |
| 22 nM | CCN(CC)CCC(=O)N[C@H](C(=O)N1CCC[C@H]1c1ncc(-c2ccc(-c3ccc(-c4cnc([C@@H]5CCCN5C(=O)[C@H](NC(=O)CCN(CC)CC)c5ccccc5)s4)cc3)cc2)s1)c1ccccc1 |
| 2.9 nM | O=C(Cc1ccccc1)N[C@H](C(=O)N1CCC[C@H]1c1ncc(-c2ccc(-c3ccc(-c4cnc([C@@H]5CCCN5C(=O)[C@H](NC(=O)Cc5ccccc5)c5ccccc5)s4)cc3)cc2)s1)c1ccccc1 |
| 0.13 nM | O=C(N[C@@H](C(=O)N1CCC[C@H]1c1ncc(-c2ccc(-c3ccc(-c4cnc([C@@H]5CCCN5C(=O)[C@H](NC(=O)c5cccnc5)c5ccccc5)s4)cc3)cc2)s1)c1ccccc1)c1cccnc1 |
| 0.59 nM | CC(=O)N[C@H](C(=O)N1CCC[C@H]1c1ncc(-c2ccc(-c3ccc(-c4cnc([C@@H]5CCCN5C(=O)[C@H](NC(C)=O)c5ccccc5)s4)cc3)cc2)s1)c1ccccc1 |
| 0.31 nM | CC(C)C(=O)N[C@H](C(=O)N1CCC[C@H]1c1ncc(-c2ccc(-c3ccc(-c4cnc([C@@H]5CCCN5C(=O)[C@H](NC(=O)C(C)C)c5ccccc5)s4)cc3)cc2)s1)c1ccccc1 |
| 0.011 nM | O=C(N[C@@H](C(=O)N1CCC[C@H]1c1ncc(-c2ccc(-c3ccc(-c4cnc([C@@H]5CCCN5C(=O)[C@H](NC(=O)c5ccncc5)c5ccccc5)s4)cc3)cc2)s1)c1ccccc1)c1ccncc1 |
